Experimental data as given in publication PMC7400788, “RAF dimer inhibition enhances the antitumor activity of MEK inhibitors in K‐RAS mutant tumors” (Molecular Oncology, 2020).
Like-named read-outs stand apart in the source and are kept apart here.

Columns and labels:
[1] = target: T1, WT B‐RAF (Homo sapiens, UniProt P15056, V600E); assay: TR-FRET kinase assay, MEK1 (K97R) substrate; assay type: biochemical
T1 construct: gene BRAF; overexpressed in HEK293 cells, immunoprecipitated

[2] = target: T2, WT C‐RAF (Homo sapiens, UniProt P04049); assay: TR-FRET kinase assay, MEK1 (K97R) substrate; assay type: biochemical
T2 construct: gene RAF1; overexpressed in HEK293 cells, immunoprecipitated

[3] = target: T3, WT B‐RAF (Homo sapiens, UniProt P15056); assay: TR-FRET kinase assay, MEK1 (K97R) substrate; assay type: biochemical
T3 construct: gene BRAF; overexpressed in HEK293 cells, immunoprecipitated

[4] = target: EGFR (Homo sapiens, UniProt P00533); assay: biochemical kinase assay (details not told)
Source text: biochemical kinase assay (details not told) on EGFR | Biochemical activity of compound C against WT B‐RAF, B‐RAF^V600E, C‐RAF, and EGFR

[5] = read-out: BGB-283 IC50 (nM) / 1 h
[6] = 1 mM ATP, 1 h pre-incubation, room temperature, time-dependent inhibition (6 h and 24 h pre-incubation also tested), read-out: Compound C IC50 (nM) / 1 h

T2 sequence (P04049 whole entry): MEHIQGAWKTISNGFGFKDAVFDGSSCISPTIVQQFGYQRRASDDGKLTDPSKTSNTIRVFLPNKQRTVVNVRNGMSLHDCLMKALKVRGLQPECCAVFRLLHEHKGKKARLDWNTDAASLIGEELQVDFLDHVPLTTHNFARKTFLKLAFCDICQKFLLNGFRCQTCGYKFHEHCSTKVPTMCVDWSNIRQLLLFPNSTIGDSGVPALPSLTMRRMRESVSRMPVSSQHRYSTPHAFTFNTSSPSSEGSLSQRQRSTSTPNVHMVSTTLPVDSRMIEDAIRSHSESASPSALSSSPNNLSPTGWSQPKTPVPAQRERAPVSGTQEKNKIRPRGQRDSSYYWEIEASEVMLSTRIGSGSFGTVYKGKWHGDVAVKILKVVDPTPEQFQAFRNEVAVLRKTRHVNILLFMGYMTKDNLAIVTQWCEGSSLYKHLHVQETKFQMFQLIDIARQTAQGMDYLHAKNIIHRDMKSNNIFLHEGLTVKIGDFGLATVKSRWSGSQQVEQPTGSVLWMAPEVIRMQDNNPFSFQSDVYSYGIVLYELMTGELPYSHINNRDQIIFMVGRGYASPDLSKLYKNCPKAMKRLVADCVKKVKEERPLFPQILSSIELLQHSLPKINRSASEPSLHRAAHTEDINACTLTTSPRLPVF
T1 sequence (P15056 2-766 V600E): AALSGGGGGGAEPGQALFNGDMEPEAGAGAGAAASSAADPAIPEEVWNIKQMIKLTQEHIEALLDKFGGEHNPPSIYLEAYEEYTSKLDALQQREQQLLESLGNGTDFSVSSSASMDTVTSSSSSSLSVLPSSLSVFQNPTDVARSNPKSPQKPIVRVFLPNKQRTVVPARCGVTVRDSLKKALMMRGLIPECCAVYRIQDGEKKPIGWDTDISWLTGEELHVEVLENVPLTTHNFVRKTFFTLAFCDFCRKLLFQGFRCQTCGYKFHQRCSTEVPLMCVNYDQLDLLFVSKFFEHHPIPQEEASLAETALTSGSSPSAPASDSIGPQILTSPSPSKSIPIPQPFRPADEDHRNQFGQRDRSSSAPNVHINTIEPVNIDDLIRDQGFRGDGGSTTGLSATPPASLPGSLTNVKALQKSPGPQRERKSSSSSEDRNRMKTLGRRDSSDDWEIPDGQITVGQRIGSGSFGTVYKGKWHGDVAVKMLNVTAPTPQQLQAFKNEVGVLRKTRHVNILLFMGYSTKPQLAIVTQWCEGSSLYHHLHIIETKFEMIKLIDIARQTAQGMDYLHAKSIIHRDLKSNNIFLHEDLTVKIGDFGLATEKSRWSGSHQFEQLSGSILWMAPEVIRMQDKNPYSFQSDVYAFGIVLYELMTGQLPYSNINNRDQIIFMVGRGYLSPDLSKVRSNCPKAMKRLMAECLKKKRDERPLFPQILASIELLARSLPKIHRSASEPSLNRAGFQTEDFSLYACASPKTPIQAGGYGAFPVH
T3 sequence (P15056 2-766): as the sequence (P15056 2-766 V600E) above, with E599V counted along it
Sequence of EGFR (P00533 25-1210): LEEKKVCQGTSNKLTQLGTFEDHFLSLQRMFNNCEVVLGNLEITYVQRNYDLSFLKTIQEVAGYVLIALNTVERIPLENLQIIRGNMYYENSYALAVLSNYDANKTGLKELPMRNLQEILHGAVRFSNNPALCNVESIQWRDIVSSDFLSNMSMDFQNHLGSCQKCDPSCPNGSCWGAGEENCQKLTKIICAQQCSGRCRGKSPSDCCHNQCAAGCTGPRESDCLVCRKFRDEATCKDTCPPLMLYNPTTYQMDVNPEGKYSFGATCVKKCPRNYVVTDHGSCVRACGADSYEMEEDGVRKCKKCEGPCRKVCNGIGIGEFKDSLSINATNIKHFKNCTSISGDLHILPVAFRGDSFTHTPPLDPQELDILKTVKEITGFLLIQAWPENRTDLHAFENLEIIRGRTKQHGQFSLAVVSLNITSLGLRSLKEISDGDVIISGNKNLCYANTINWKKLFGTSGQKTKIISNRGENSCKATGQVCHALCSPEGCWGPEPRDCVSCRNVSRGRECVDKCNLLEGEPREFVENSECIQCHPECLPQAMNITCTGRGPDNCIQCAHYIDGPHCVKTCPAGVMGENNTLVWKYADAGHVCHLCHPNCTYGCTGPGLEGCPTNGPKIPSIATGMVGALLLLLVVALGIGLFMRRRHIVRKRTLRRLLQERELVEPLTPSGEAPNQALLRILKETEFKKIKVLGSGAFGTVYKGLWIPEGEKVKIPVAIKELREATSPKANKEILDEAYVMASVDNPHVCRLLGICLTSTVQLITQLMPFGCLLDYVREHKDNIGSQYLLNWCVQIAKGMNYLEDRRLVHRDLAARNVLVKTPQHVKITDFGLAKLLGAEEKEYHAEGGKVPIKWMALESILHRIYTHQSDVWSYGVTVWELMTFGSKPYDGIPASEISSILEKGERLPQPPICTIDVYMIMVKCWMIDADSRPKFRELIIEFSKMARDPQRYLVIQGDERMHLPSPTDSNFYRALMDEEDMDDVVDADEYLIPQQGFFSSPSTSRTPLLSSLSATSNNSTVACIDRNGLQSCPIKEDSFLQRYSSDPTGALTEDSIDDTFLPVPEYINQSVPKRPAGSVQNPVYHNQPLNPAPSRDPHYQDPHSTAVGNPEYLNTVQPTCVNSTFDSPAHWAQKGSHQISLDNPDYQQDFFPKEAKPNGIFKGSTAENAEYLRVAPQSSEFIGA

IC50 [1, 5] [nM]	IC50 [2, 5] [nM]	IC50 [3, 5] [nM]	IC50 [1, 6] [nM]	IC50 [2, 6] [nM]	IC50 [4] [µM]	IC50 [3, 6] [nM]	SMILES
49	122	2310					O=C1CCc2c(Oc3ccc4c(c3)[C@@H]3[C@H](O4)[C@H]3c3nc4ccc(C(F)(F)F)cc4[nH]3)ccnc2N1 [BGB‐283]
			1.6	2.4	1.27	24	c1cc(-c2cnn3cc(-c4ccc(OCCN5CCCCC5)cc4)cnc23)ccn1 [compound C]
